These results are taken from ChEMBL document CHEMBL1201862, “PubChem BioAssay data set” (2004).

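A five-concentration, 48-hour dose response in 96-well plates underlies each endpoint, interpolated linearly between surrounding concentrations. GI50 is the concentration that inhibits growth by half.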 Active and inactive are the calls of the source. Cut-off read from the data, not from the text of the source: active = GI50 up to about 1.1 µM and inactive = higher.

Among the test systems are UACC-62; OVCAR-4; RPMI-8226; HOP-92; M19-MEL; HCT-116; K562; U-251; Malme-3M; HL-60; HCT-15; LXFL 529; SK-MEL-2; HT-29; 786-0; OVCAR-3; Hs-578T; MDA-N; MCF7; MDA-MB-231.
Holding throughout (test): NCI anticancer screen, dose series, 48 h

`Cc1ccc(NC(=O)C(=O)Cc2cc[n+]([O-])cc2)cc1`: the GI50 with UACC-62, with OVCAR-4, in the experiment on RPMI-8226, in the experiment with HOP-92, in the experiment with M19-MEL and in the experiment on HCT-116 was > 100 µM (inactive) throughout. Besides, the GI50 with K562 was > 100 µM (inactive); with U-251, > 100 µM (inactive); in the experiment on Malme-3M, > 100 µM (inactive); in the experiment with HL-60, > 100 µM (inactive); in the experiment on HCT-15, more than 100 µM; in the experiment on LXFL 529, > 100 µM (inactive). For the same compound, the GI50 in the experiment on SK-MEL-2, with HT-29, in the experiment with 786-0 and in the experiment with OVCAR-3 was > 100 µM (inactive) each time.
For `COc1ccc(/C=C/c2cc(OC)c(OC)c(OC)c2)cc1`, the GI50 with UACC-62 was 3.25 µM (inactive); with OVCAR-4 it was 41.5 µM (inactive); in the experiment with RPMI-8226, 1.09 µM (active); in the experiment on HOP-92 it was 90.8 µM (inactive); in the experiment on M19-MEL, 9.95 µM (inactive); in the experiment on HCT-116, 2.86 µM (inactive). Also, the GI50 in the experiment on K562 was 3.2 µM (inactive); in the experiment on U-251, 2.61 µM (inactive); in the experiment on Malme-3M it was 3.27 µM (inactive); in the experiment on HL-60, 2.75 µM (inactive); in the experiment on HCT-15 it was 2.57 µM; in the experiment with LXFL 529, 31.8 µM (inactive). Also, the GI50 is 2.36 µM (inactive) with SK-MEL-2, 3.2 µM (inactive) in the experiment with HT-29, 11.1 µM (inactive) with 786-0 and 3.26 µM (inactive) in the experiment with OVCAR-3.
As to `COc1cc2c(c(OC)c1OC)-c1ccc(SC)c(=O)cc1C(CC(=O)Oc1cccc([N+](=O)[O-])c1)C2` (configuration not stated), the GI50 with UACC-62 is 0.356 µM (active); in the experiment on OVCAR-4, 5.66 µM (inactive); with RPMI-8226, 0.647 µM (active); in the experiment on HOP-92, 3.09 µM (inactive); in the experiment with M19-MEL it was 0.458 µM (active); in the experiment with HCT-116 it was 0.384 µM (active). Further, the GI50 with K562 is 0.344 µM (active); in the experiment on U-251 it was 0.794 µM (active); in the experiment on Malme-3M, 0.36 µM (active); in the experiment with HL-60, 0.255 µM (active); with HCT-15, 0.4 µM; with LXFL 529, 0.619 µM (active). The GI50 in the experiment with SK-MEL-2 is 0.713 µM (active); in the experiment with HT-29, 0.362 µM (active); in the experiment with 786-0 it was 0.473 µM (active); in the experiment on OVCAR-3, 0.276 µM (active).
For `BrC(Br)=C1C(=C(Br)Br)C(Br)C1Br` (configuration not stated), the GI50 in the experiment with UACC-62 was 0.429 µM (active); with OVCAR-4, 2.51 µM (inactive); in the experiment with RPMI-8226, 0.158 µM (active); with HOP-92 it was 1.34 µM (inactive); in the experiment with M19-MEL, 0.63 µM (active); in the experiment on HCT-116 it was 0.302 µM (active). Moreover, the GI50 was 0.158 µM (active) in the experiment on K562; 0.65 µM (active) in the experiment on U-251; 0.418 µM (active) with Malme-3M; < 0.0125 µM (active) with HL-60; 2.51 µM (inactive) in the experiment with Hs-578T; 0.301 µM in the experiment on HCT-15. The GI50 with MDA-N was 0.368 µM (active); in the experiment with MCF7, 0.193 µM (active); with LXFL 529, 0.439 µM (active); with MDA-MB-231, 1.12 µM (inactive); with SK-MEL-2 it was 0.789 µM (active); with HT-29 it was 0.362 µM (active). Moreover, the figures for the GI50 with 786-0 and in the experiment on OVCAR-3 were 0.163 µM (active) and 0.794 µM (active), respectively.
Consider `Cc1cc(N(CCC#N)CCC#N)ccc1/C=C1N=C(/C=C\c2ccccc2)N(c2ccc(C(=O)O)cc2)C\1=O`, for which the GI50 with UACC-62, in the experiment on OVCAR-4, in the experiment with RPMI-8226, with HOP-92, in the experiment on M19-MEL and in the experiment on HCT-116 was > 100 µM (inactive) in each case. For the same compound, the GI50 in the experiment on K562 is > 100 µM (inactive); in the experiment on U-251, > 100 µM (inactive); with Malme-3M, > 100 µM (inactive); in the experiment on HL-60 it was > 100 µM (inactive); with HCT-15, more than 100 µM; in the experiment on LXFL 529, > 100 µM (inactive). Also, the GI50 in the experiment on SK-MEL-2, in the experiment with HT-29, in the experiment with 786-0 and in the experiment on OVCAR-3 was > 100 µM (inactive) throughout.
As to `Cc1ccc2c(CC(=O)O)cc(=O)oc2c1`, the GI50 with UACC-62, with OVCAR-4, with RPMI-8226, with HOP-92, in the experiment with M19-MEL and in the experiment on HCT-116 was > 100 µM (inactive) in each case. The GI50 with K562 is > 100 µM (inactive); in the experiment with U-251, > 100 µM (inactive); with Malme-3M, > 100 µM (inactive); in the experiment with HL-60 it was > 100 µM (inactive); in the experiment on HCT-15, more than 100 µM; with LXFL 529, > 100 µM (inactive). Moreover, the GI50 in the experiment with SK-MEL-2, in the experiment with HT-29, with 786-0 and in the experiment with OVCAR-3 was > 100 µM (inactive) throughout.
On to `[C-]#[N+]C(C)(C)C[C@H]1CC(C)C2CCC(C)C3([N+]#[C-])CCC(=C)C1[C@H]23` (some centres not stated), for which the GI50 in the experiment with UACC-62 was 2.82 µM (inactive); with OVCAR-4 it was 0.234 µM (active); in the experiment with HOP-92 it was 0.106 µM (active); in the experiment with M19-MEL, 1.5 µM (inactive); in the experiment on HCT-116 it was 0.184 µM (active); in the experiment with K562, 0.327 µM (active). Also, the GI50 with U-251 is 1.51 µM (inactive); with Malme-3M it was 5.86 µM (inactive); in the experiment with HL-60, 0.601 µM (active); with LXFL 529, 1.82 µM (inactive); with SK-MEL-2 it was 0.753 µM (active); in the experiment on HT-29 it was 0.413 µM (active). The GI50 is 2.34 µM (inactive) with 786-0 and 2.36 µM (inactive) in the experiment with OVCAR-3.
Regarding `O=C(N/C(=C\c1cc(Cl)ccc1Cl)c1nc2ccccc2[nH]1)c1ccccc1`, the GI50 in the experiment on UACC-62 was 38.9 µM (inactive); with OVCAR-4, 30.1 µM (inactive); in the experiment on HOP-92, 8.41 µM (inactive); in the experiment on M19-MEL, 30.5 µM (inactive); with K562, 24.4 µM (inactive); in the experiment on U-251 it was 29.7 µM (inactive). The GI50 is 19.7 µM (inactive) in the experiment with Malme-3M; 21.2 µM (inactive) in the experiment on HL-60; 24 µM with HCT-15; 24.5 µM (inactive) in the experiment with LXFL 529; 52 µM (inactive) in the experiment with SK-MEL-2; 16.3 µM (inactive) with HT-29. In addition, the GI50 in the experiment on 786-0 was 18 µM (inactive); in the experiment with OVCAR-3 it was 36.3 µM (inactive).
As to `Cc1c2ccccc2c(C)c2c3c(ccc12)C(=O)C=CC3=O`, the GI50 was 35.8 µM (inactive) in the experiment with UACC-62; 23.4 µM (inactive) in the experiment on OVCAR-4; 29.9 µM (inactive) in the experiment with RPMI-8226; 15.1 µM (inactive) in the experiment with HOP-92; 17.1 µM (inactive) in the experiment with M19-MEL; 22.5 µM (inactive) with HCT-116. For the same compound, the GI50 is 11.3 µM (inactive) with K562; 52.1 µM (inactive) with U-251; 29 µM (inactive) in the experiment on Malme-3M; 2.15 µM (inactive) in the experiment with HL-60; 19.1 µM in the experiment with HCT-15; 17.3 µM (inactive) in the experiment with LXFL 529. In addition, the GI50 with SK-MEL-2 was 45.7 µM (inactive); with HT-29, 28 µM (inactive); in the experiment with 786-0 it was 25.7 µM (inactive); in the experiment with OVCAR-3, 17.8 µM (inactive).
Take `CN1CCC(O)C(CNC23CC4CC(CC(C4)C2)C3)C1` (configuration not stated): the GI50 in the experiment with UACC-62 was > 100 µM (inactive); with OVCAR-4, > 100 µM (inactive); in the experiment on HOP-92, 85.1 µM (inactive); with M19-MEL, > 100 µM (inactive); in the experiment with K562, > 100 µM (inactive); in the experiment on U-251 it was > 100 µM (inactive). Further, the GI50 with Malme-3M, in the experiment with HL-60, in the experiment on LXFL 529, with SK-MEL-2, in the experiment with HT-29 and in the experiment with 786-0 was > 100 µM (inactive) in each case.
On to `COC(=O)/C(=N\NC(=O)c1ccccc1O)C(C#N)c1ccccc1` (configuration not stated), for which the GI50 in the experiment with UACC-62 was 12.1 µM (inactive); in the experiment on OVCAR-4, > 43.2 µM (inactive); in the experiment on RPMI-8226 it was 20.2 µM (inactive); in the experiment on HOP-92, 19.9 µM (inactive); in the experiment on M19-MEL, 30 µM (inactive); with HCT-116, 17.3 µM (inactive). Further, the GI50 is 16.4 µM (inactive) in the experiment with K562; 32.1 µM (inactive) in the experiment on U-251; 21.4 µM (inactive) with Malme-3M; 16.3 µM (inactive) with HL-60; 17.4 µM with HCT-15; 21.5 µM (inactive) with LXFL 529. Also, the GI50 with SK-MEL-2 is > 50 µM (inactive); in the experiment on HT-29 it was > 50 µM (inactive); in the experiment on 786-0, 17.4 µM (inactive); in the experiment on OVCAR-3, 16.6 µM (inactive).
On to `C=CC/N=C1/N=C(CC(=O)OCC)CS1`, for which the GI50 in the experiment with UACC-62, in the experiment on OVCAR-4, in the experiment on HOP-92, with M19-MEL, in the experiment with HCT-116 and in the experiment on K562 was > 100 µM (inactive) each time. Moreover, the GI50 in the experiment on U-251 was > 100 µM (inactive); in the experiment on Malme-3M, > 100 µM (inactive); in the experiment on HL-60, > 100 µM (inactive); in the experiment on HCT-15, more than 100 µM; in the experiment with LXFL 529, > 100 µM (inactive); in the experiment on SK-MEL-2 it was > 100 µM (inactive). Also, the GI50 with HT-29, with 786-0 and in the experiment with OVCAR-3 was > 100 µM (inactive) each time.
For `CC(=O)N(C)c1ccc2ncccc2c1[N+](=O)[O-]`, the GI50 in the experiment on UACC-62, in the experiment on OVCAR-4, in the experiment with RPMI-8226, with HOP-92, in the experiment on M19-MEL and with HCT-116 was > 100 µM (inactive) each time. Also, the GI50 is > 100 µM (inactive) in the experiment with K562; > 100 µM (inactive) in the experiment with Malme-3M; > 100 µM (inactive) in the experiment with HL-60; more than 100 µM in the experiment with HCT-15; > 100 µM (inactive) in the experiment with LXFL 529; > 100 µM (inactive) in the experiment with SK-MEL-2. Also, the GI50 in the experiment with HT-29, in the experiment on 786-0 and in the experiment with OVCAR-3 was > 100 µM (inactive) in each case.
